{
  "source": "patent US20050153870A1",
  "about": "“Medicinal composition for diagnosis, prevention, or therapy of multiple risk factor syndrome” (priority 2002, published 2005)",
  "system": "C57BL/6j-ob/ob mice",
  "test": "AS-6 in feed to ob/ob mice (Example 3)",
  "assay_type": "in vivo, mouse",
  "conditions": "0.1% in feed, 1 week",
  "description": "C57BL/6j-ob/ob mice, which were model animals of multiple risk factor syndrome, were raised for a week with powered feed in which an ascochlorin derivative, 4-O-carboxymethylascochlorin (AS-6), was mixed in a content of 0.1%. Thereafter, the weight, blood sugar, blood insulin, and blood neutral fat were measured.",
  "note": "Marks after values point to notes of the source that are not given here.",
  "data": [
    {"smiles": "CC(C=CC1(C)C(C)CCC(=O)C1C)=CCc1c(O)c(C=O)c(C)c(Cl)c1OCC(=O)O", "note": "(stereo not shown) [AS-6, 4-O-carboxymethylascochlorin]", "values": [
      {"measurement": "Blood sugar, change vs ob/ob control group", "value": "−32.4", "unit": "%*"},
      {"measurement": "Body weight, change vs ob/ob control group", "value": "ns"},
      {"measurement": "Cholesterol, change vs ob/ob control group", "value": "ns"},
      {"measurement": "Free fatty acid, change vs ob/ob control group", "value": "−43.6", "unit": "%**"},
      {"measurement": "Insulin, change vs ob/ob control group", "value": "−33.8", "unit": "%"},
      {"measurement": "Neutral fat, change vs ob/ob control group", "value": "−61.0", "unit": "%**"},
      {"measurement": "Free fatty acid", "setting": "ob/ob control 1.224 ± 0.072", "value": "0.690 ± 0.078", "unit": "mEq/L"},
      {"measurement": "Body weight", "setting": "ob/ob control 48.5 ± 0.6", "value": "47.8 ± 0.6", "unit": "g"},
      {"measurement": "Insulin", "setting": "ob/ob control 73.9 ± 16.7", "value": "48.9 ± 8.2", "unit": "μU/mL9"},
      {"measurement": "Neutral fat", "setting": "ob/ob control 162.4 ± 16.0", "value": "63.2 ± 7.2", "unit": "mg/dL"},
      {"measurement": "Cholesterol", "setting": "ob/ob control 268.5 ± 24.2", "value": "249.7 ± 12.1", "unit": "mg/dL"},
      {"measurement": "blood sugar", "setting": "ob/ob control 360.4 ± 44.9", "value": "243.8 ± 15.6", "unit": "mg/dL"},
      {"measurement": "risk factors except for body weight and blood cholesterol", "setting": "ob/ob mice", "value": "significantly reduced"}
    ]}
  ]
}
